Here are results for eight compounds from ChEMBL document CHEMBL1201862, “PubChem BioAssay data set” (2004).

SMILES strings stand for the structures.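 Results reflect a 48-hour exposure of cells in 96-well plates to compound at five concentrations. Here, GI50 denotes the concentration required for 50% inhibition of growth.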 Active and inactive are the calls of the source. No stated cut-off is given here; in the data, active = GI50 up to about 1.1 µM and inactive = higher.

Among the test systems are MDA-MB-435; HOP-92; RPMI-8226; SF-539; COLO 205; SR; K562; IGROV-1; UACC-62; ACHN; CCRF-CEM; HT-29; SK-MEL-2; PC-3; HCT-15; SK-MEL-5; SK-MEL-28; RXF 393; A498; SNB-19.
What all share (assay): NCI tumour cell line growth inhibition, 48 h

For the compound `Oc1ccccc1-c1n[nH]c(-c2ccccc2O)n1`, the GI50 in the assay with MDA-MB-435 was > 100 µM (inactive); in the assay on HOP-92, 1.75 µM (inactive); with RPMI-8226, 2.44 µM (inactive); in the assay with SF-539, 4.84 µM (inactive); with COLO 205, 4.25 µM (inactive); in the assay with SR, 0.807 µM (active). Further, the GI50 in the assay on K562 was 3.64 µM (inactive); in the assay with IGROV-1, 0.407 µM (active); in the assay with UACC-62 it was 7.59 µM (inactive); in the assay with ACHN, 2.21 µM (inactive); with CCRF-CEM, 1.47 µM (inactive); with HT-29 it was 3.91 µM (inactive). The GI50 in the assay on SK-MEL-2 was > 100 µM (inactive); in the assay with PC-3, 2.24 µM (inactive); with HCT-15 it was 0.149 µM; with SK-MEL-5 it was 3.04 µM (inactive); in the assay with SK-MEL-28, > 100 µM (inactive); with RXF 393, 2.23 µM (inactive). In addition, the GI50 with A498 was 8.51 µM (inactive).

Regarding `C/C=C/OC1C(C2COC(C)(C)O2)OC2OC(C)(C)OC21` (centres undefined), the GI50 in the assay with MDA-MB-435, in the assay on HOP-92, with RPMI-8226, in the assay on SF-539, in the assay with SR and in the assay with K562 was > 100 µM (inactive) in each case. For the same compound, the GI50 with IGROV-1, in the assay on ACHN, with CCRF-CEM, in the assay on HT-29, in the assay with SK-MEL-2 and with PC-3 was > 100 µM (inactive) each time. The GI50 with HCT-15 is greater than 100 µM; in the assay with SK-MEL-5, > 100 µM (inactive); with SNB-19, > 100 µM (inactive); in the assay on SK-MEL-28, > 100 µM (inactive); with RXF 393 it was > 100 µM (inactive); in the assay on A498, > 100 µM (inactive).

Turning to `CC(=O)OC12c3ccccc3-c3ccccc3C1C1C(=O)OC(=O)C12` (centres undefined), the GI50 in the assay on MDA-MB-435, with HOP-92, in the assay with RPMI-8226, with SF-539, with COLO 205 and with SR was > 10 µM (inactive) throughout. The GI50 in the assay on K562, in the assay with IGROV-1, with ACHN, in the assay with CCRF-CEM, with HT-29 and in the assay with SK-MEL-2 was > 10 µM (inactive) each time. The GI50 with PC-3 was > 10 µM (inactive); with HCT-15, greater than 10 µM; with SK-MEL-5 it was > 10 µM (inactive); with SNB-19, > 10 µM (inactive); with SK-MEL-28 it was > 10 µM (inactive); in the assay with RXF 393, > 10 µM (inactive). Also, in the assay with A498, the GI50 is > 10 µM (inactive).

On to `COc1cc(C)c2c(c1C=O)Oc1c(c(C)c(O)c3c1C(O)OC3=O)OC2=O` (centres undefined) [STICTIC ACID], for which the GI50 is 50.5 µM (inactive) in the assay on MDA-MB-435; 99.3 µM (inactive) with HOP-92; 16 µM (inactive) in the assay on RPMI-8226; 31.5 µM (inactive) with SF-539; 28.3 µM (inactive) in the assay on COLO 205; 16 µM (inactive) in the assay with SR. In addition, the GI50 with IGROV-1 was 23.1 µM (inactive); with UACC-62 it was 25.6 µM (inactive); in the assay on ACHN it was 22 µM (inactive); with CCRF-CEM, > 10 µM (inactive); with HT-29, 41.8 µM (inactive); in the assay with SK-MEL-2, > 10 µM (inactive). Also, the GI50 is 34.4 µM (inactive) with PC-3; 17.6 µM in the assay with HCT-15; 20.2 µM (inactive) in the assay with SK-MEL-5; 14.5 µM (inactive) with SNB-19; > 100 µM (inactive) in the assay with SK-MEL-28; 32.5 µM (inactive) in the assay with RXF 393. Moreover, in the assay on A498, the GI50 is 31.2 µM (inactive).

Consider `CC(=O)NNc1nc(C)c(C(/C=C/c2ccc(NC(C)=O)cc2)=N/NS(=O)(=O)c2ccc(C)cc2)s1`, for which the GI50 in the assay with MDA-MB-435, with HOP-92, with RPMI-8226, in the assay on SF-539, with COLO 205 and in the assay on SR was > 100 µM (inactive) throughout. The GI50 with IGROV-1, in the assay with UACC-62, in the assay on ACHN, in the assay on CCRF-CEM, with HT-29 and in the assay with SK-MEL-2 was > 100 µM (inactive) throughout. For the same compound, the GI50 in the assay with PC-3 was > 100 µM (inactive); in the assay with HCT-15, greater than 100 µM; in the assay with SK-MEL-5, > 100 µM (inactive); in the assay with SNB-19, > 100 µM (inactive); in the assay on SK-MEL-28, > 100 µM (inactive); with RXF 393, > 100 µM (inactive). For the same compound, the GI50 in the assay with A498 is > 100 µM (inactive).

Take `CC(=O)N1C=Cc2c(c(C)c3c([nH]c4ccccc43)c2C)C1`: the GI50 in the assay on MDA-MB-435 is 13 µM (inactive); with HOP-92 it was 5.4 µM (inactive); with RPMI-8226, 14.7 µM (inactive); in the assay with SF-539 it was 5.27 µM (inactive); in the assay on COLO 205, 2.4 µM (inactive); in the assay with SR, 34.2 µM (inactive). The GI50 with K562 is > 100 µM (inactive); in the assay on IGROV-1 it was 3.76 µM (inactive); with ACHN, 1.09 µM (active); in the assay with CCRF-CEM, 12.8 µM (inactive); in the assay with HT-29 it was 4.58 µM (inactive); in the assay on SK-MEL-2, 12.3 µM (inactive). The GI50 in the assay on PC-3 was 4.95 µM (inactive); with HCT-15 it was 2.1 µM; with SK-MEL-5 it was 13.8 µM (inactive); in the assay on SNB-19 it was 10.2 µM (inactive); with SK-MEL-28, 15.3 µM (inactive); in the assay with RXF 393, 16.3 µM (inactive). The GI50 in the assay with A498 was 14.8 µM (inactive).

Turning to `O=C1CSC(c2ccccc2O)N1c1ccc2c(c1)Oc1c(Cl)c3c(c(Cl)c1=N2)Oc1cc(N2C(=O)CSC2c2ccccc2O)ccc1N=3` (centres undefined), the GI50 with MDA-MB-435 is 29.1 µM (inactive); with HOP-92, 17.1 µM (inactive); in the assay on RPMI-8226, 23.7 µM (inactive); in the assay on SF-539, 37.9 µM (inactive); with SR it was 0.873 µM (active); with K562, 13.2 µM (inactive). Besides, the GI50 in the assay on IGROV-1 is 36.1 µM (inactive); with ACHN, 24.5 µM (inactive); with CCRF-CEM it was 18.1 µM (inactive); in the assay on HT-29 it was 54.7 µM (inactive); in the assay with SK-MEL-2 it was 47.6 µM (inactive); in the assay with PC-3, 38.4 µM (inactive). Besides, the GI50 with HCT-15 is greater than 100 µM; in the assay with SK-MEL-5 it was > 100 µM (inactive); in the assay with SK-MEL-28, 81.5 µM (inactive); in the assay with RXF 393, 17.1 µM (inactive); with A498 it was > 100 µM (inactive).

`CCOP(=O)(OCC)C1(O)CC(n2cc(C)c(=O)[nH]c2=O)OC1CO` (centres undefined): the GI50 in the assay with MDA-MB-435, in the assay with HOP-92, in the assay with RPMI-8226, in the assay on SF-539, with COLO 205 and in the assay on SR was > 100 µM (inactive) throughout. The GI50 in the assay with K562, in the assay on IGROV-1, in the assay on UACC-62, in the assay on ACHN, with HT-29 and in the assay with SK-MEL-2 was > 100 µM (inactive) each time. The GI50 was > 100 µM (inactive) in the assay with PC-3; greater than 100 µM in the assay with HCT-15; > 100 µM (inactive) in the assay with SK-MEL-5; > 100 µM (inactive) in the assay on SNB-19; > 100 µM (inactive) in the assay on SK-MEL-28; > 100 µM (inactive) in the assay on RXF 393. The GI50 in the assay with A498 is > 100 µM (inactive).
